Reference: patent US4416884A, “Piperazinylbenzoheterocyclic compounds” (Otsuka Pharmaceutical Co., Ltd., priority 1978, dated 1983)
Values after ≈ are worked out from the molar mass of the structure shown. Where two headings read alike, the source gives them in different places.

Legend:
Type in all cases: cell-based
[1] = test system: Test Organism 16 (Pseudomonas maltophilia IFO 12692); experiment: influence of the addition of horse serum on the MIC; details: Stenotrophomonas maltophilia, read-out: Minimum Inhibitory Concentration
[2] = test system: Pseudomonas putida IFO 13696; experiment: antimicrobial activity, serial dilution method on agar plate; details: read-out: Minimum Inhibitory Concentration
Method in brief: (§1)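 Reported figure is the lowest compound level (mcg/ml) inhibiting growth on Heart Infusion agar in a serial plate dilution. Suspensions of 1×10^8 and 1×10^6 cells/ml served as inocula.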

[3] = test system: Pseudomonas maltophilia IFO 12692; experiment: as above; details: Stenotrophomonas maltophilia, IFO12692; inoculum 1 × 10^8 cells/ml; read-out: Minimum Inhibitory Concentration
Method in brief: as §1

[4] = test system: Hafnia alvei IFO 3731; experiment: as above; details: read-out: Minimum Inhibitory Concentration
Method in brief: as §1

[5] = test system: Yersinia enterocolitica 0-3; experiment: as above; details: read-out: Minimum Inhibitory Concentration
Method in brief: as §1

[6] = test system: Escherichia Coli NIHJ; experiment: as above; details: read-out: Minimum Inhibitory Concentration
Method in brief: as §1

[7] = test system: Escherichia Coli NIHJ JC-2 (IFO 12734); experiment: as above; details: Escherichia coli, read-out: Minimum Inhibitory Concentration
Method in brief: as §1

[8] = test system: Enterobacter cloacae; experiment: as above; details: read-out: Minimum Inhibitory Concentration
Method in brief: as §1

[9] = test system: Corinebacterium diphteriae; experiment: as above; details: read-out: Minimum Inhibitory Concentration
Method in brief: as §1

[10] = test system: Salmonella typhi 0-901 (NCTC 8393); experiment: as above; details: Salmonella enterica
Method in brief: as §1

[11] = test system: Test Organism 17 (Pseudomonas putida IFO 13696); experiment: influence of the addition of horse serum on the MIC
[12] = test system: Yersinia enterocolitica 0-5; experiment: antimicrobial activity, serial dilution method on agar plate; details: Yersinia enterocolitica, 05; inoculum 1 × 10^8 cells/ml; read-out: Minimum Inhibitory Concentration
[13] = test system: Test Organism 2 (Escherichia Coli NIHJ JC-2 (IFO 12734)); experiment: influence of the addition of horse serum on the MIC
[14] = test system: Test Organism 21 (Bacillus subtilis PCI 219); experiment: as above
[15] = horse serum 0%, inoculum 10^6, read-out: Minimum Inhibitory Concentration
[16] = horse serum 0%, inoculum 10^8, read-out: Minimum Inhibitory Concentration
[17] = horse serum 10%, inoculum 10^6, read-out: Minimum Inhibitory Concentration
[18] = horse serum 10%, inoculum 10^8, read-out: Minimum Inhibitory Concentration
[19] = horse serum 20%, inoculum 10^6, read-out: Minimum Inhibitory Concentration
[20] = horse serum 20%, inoculum 10^8, read-out: Minimum Inhibitory Concentration
[21] = horse serum 40%, inoculum 10^6, read-out: Minimum Inhibitory Concentration
[22] = horse serum 40%, inoculum 10^8, read-out: Minimum Inhibitory Concentration

CC1CCc2cc(F)cc3c(=O)c(C(=O)O)cn1c23 (centres unmarked) [F]
MIC ([1]; IFO12692, horse serum 0%, inoculum 10^6): 0.8 µg/mL (≈ 3.06 µM) | MIC ([1]; IFO12692, horse serum 0%, inoculum 10^8): 0.8 µg/mL (≈ 3.06 µM) | MIC ([1]; IFO12692, horse serum 10%, inoculum 10^6): 0.4 µg/mL (≈ 1.53 µM) | MIC ([1]; IFO12692, horse serum 10%, inoculum 10^8): 0.8 µg/mL (≈ 3.06 µM) | MIC ([1]; IFO12692, horse serum 20%, inoculum 10^6): 1.6 µg/mL (≈ 6.12 µM) | MIC ([1]; IFO12692, horse serum 20%, inoculum 10^8): 0.8 µg/mL (≈ 3.06 µM) | MIC ([1]; IFO12692, horse serum 40%, inoculum 10^6): 1.6 µg/mL (≈ 6.12 µM) | MIC ([1]; IFO12692, horse serum 40%, inoculum 10^8): 1.6 µg/mL (≈ 6.12 µM) | MIC ([2]; IFO13696, inoculum 1 × 10^6 cells/ml): 125 µg/mL (≈ 478 µM) | MIC ([2]; IFO13696, inoculum 1 × 10^8 cells/ml): 25 µg/mL (≈ 95.7 µM) | MIC [3]: 25 µg/mL (≈ 95.7 µM) | MIC ([4]; IFO3731, inoculum 1 × 10^6 cells/ml): 125 µg/mL (≈ 478 µM) | MIC ([4]; IFO3731, inoculum 1 × 10^8 cells/ml): 25 µg/mL (≈ 95.7 µM) | MIC ([5]; Yersinia enterocolitica, 03, inoculum 1 × 10^6 cells/ml): 0.4 µg/mL (≈ 1.53 µM) | MIC ([5]; Yersinia enterocolitica, 03, inoculum 1 × 10^8 cells/ml): 0.8 µg/mL (≈ 3.06 µM) | MIC ([6]; inoculum 1 × 10^6 cells/ml): 0.1 µg/mL (≈ 0.383 µM) | MIC ([6]; inoculum 1 × 10^8 cells/ml): 0.2 µg/mL (≈ 0.766 µM) | MIC ([7]; inoculum 1 × 10^6 cells/ml): 0.4 µg/mL (≈ 1.53 µM) | MIC ([7]; inoculum 1 × 10^8 cells/ml): 0.8 µg/mL (≈ 3.06 µM) | MIC ([8]; inoculum 1 × 10^6 cells/ml): 0.2 µg/mL (≈ 0.766 µM) | MIC ([8]; inoculum 1 × 10^8 cells/ml): 0.4 µg/mL (≈ 1.53 µM) | MIC ([9]; inoculum 1 × 10^6 cells/ml): > 6.3 µg/mL | MIC ([9]; inoculum 1 × 10^8 cells/ml): > 25 µg/mL | MIC ([10]; read-out: Minimum Inhibitory Concentration, inoculum 1 × 10^6 cells/ml): 0.2 µg/mL (≈ 0.766 µM) | MIC ([10]; read-out: Minimum Inhibitory Concentration, inoculum 1 × 10^8 cells/ml): 0.2 µg/mL (≈ 0.766 µM) | MIC ([11]; IFO13696, horse serum 0%, inoculum 10^6, read-out: Minimum Inhibitory Concentration): 0.1 µg/mL (≈ 0.383 µM) | MIC ([11]; IFO13696, horse serum 0%, inoculum 10^8, read-out: Minimum Inhibitory Concentration): 0.2 µg/mL (≈ 0.766 µM) | MIC ([11]; IFO13696, horse serum 10%, inoculum 10^6, read-out: Minimum Inhibitory Concentration): 0.2 µg/mL (≈ 0.766 µM) | MIC ([11]; IFO13696, horse serum 10%, inoculum 10^8, read-out: Minimum Inhibitory Concentration): 0.4 µg/mL (≈ 1.53 µM) | MIC ([11]; IFO13696, horse serum 20%, inoculum 10^6, read-out: Minimum Inhibitory Concentration): 0.2 µg/mL (≈ 0.766 µM) | MIC ([11]; IFO13696, horse serum 20%, inoculum 10^8, read-out: Minimum Inhibitory Concentration): 0.2 µg/mL (≈ 0.766 µM) | MIC ([11]; IFO13696, horse serum 40%, inoculum 10^6, read-out: Minimum Inhibitory Concentration): 0.2 µg/mL (≈ 0.766 µM) | MIC ([11]; IFO13696, horse serum 40%, inoculum 10^8, read-out: Minimum Inhibitory Concentration): 0.2 µg/mL (≈ 0.766 µM) | MIC [12]: 0.4 µg/mL (≈ 1.53 µM) | MIC [13, 15]: 0.8 µg/mL (≈ 3.06 µM) | MIC [13, 16]: 0.8 µg/mL (≈ 3.06 µM) | MIC [13, 17]: 0.8 µg/mL (≈ 3.06 µM) | MIC [13, 18]: 0.8 µg/mL (≈ 3.06 µM) | MIC [13, 19]: 0.8 µg/mL (≈ 3.06 µM) | MIC [13, 20]: 0.8 µg/mL (≈ 3.06 µM) | MIC [13, 21]: 1.6 µg/mL (≈ 6.12 µM) | MIC [13, 22]: 1.6 µg/mL (≈ 6.12 µM) | MIC [14, 15]: 0.8 µg/mL (≈ 3.06 µM) | MIC [14, 16]: 0.8 µg/mL (≈ 3.06 µM) | MIC [14, 17]: 0.8 µg/mL (≈ 3.06 µM) | MIC [14, 18]: 0.8 µg/mL (≈ 3.06 µM) | MIC [14, 19]: 0.8 µg/mL (≈ 3.06 µM) | MIC [14, 20]: 0.8 µg/mL (≈ 3.06 µM) | MIC [14, 21]: 1.6 µg/mL (≈ 6.12 µM) | MIC [14, 22]: 1.6 µg/mL (≈ 6.12 µM)
